Laboratory results taken from article PMC4354731 (Biochimica et biophysica acta, 2013).

What was measured:
[1] = biological target: fumarate reductase (FrdABCD), FrdB subunit (Escherichia coli, UniProt P0A8Q0+P0A8Q3+P0AC47); experiment: fluorescence quench titration in enriched membranes; assay type: binding
[2] = biological target: fumarate reductase (FrdABCD), FrdB subunit (Escherichia coli, UniProt P0A8Q0+P0A8Q3+P0AC47, P0AC47:K229L); experiment: biochemical
[3] = biological target: fumarate reductase (FrdABCD), FrdB subunit (Escherichia coli, UniProt P0A8Q0+P0A8Q3+P0AC47, P0AC47:K229R); experiment: biochemical
[4] = biological target: fumarate reductase (FrdABCD), FrdB subunit (Escherichia coli, UniProt P0A8Q0+P0A8Q3+P0AC47, P0AC47:K229E); experiment: biochemical
[5] = biological target: fumarate reductase (FrdABCD), FrdB subunit (Escherichia coli, UniProt P0A8Q0+P0A8Q3+P0AC47, P0AC47:S204R); experiment: biochemical

For CCCCCCCc1cc(O)c2ccccc2[n+]1[O-] [HOQNO, 2-n-heptyl-4-hyroxyquinoline-N-oxide], the Kd [1] was 0.005 µM, the Kd [2] was 0.11 µM and the Kd [3] was 0.08 µM. It also gave a Kd [4] of 0.11 µM and a Kd [5] of 0.005 µM.
